# In ChEMBL document CHEMBL4196086, “Recent advances of imidazole-containing derivatives as anti-tubercular agents” (Eur J Med Chem, 2018):
# What was measured:
# [1] = system: Mycobacterium tuberculosis; experiment: Antimycobacterial activity against Mycobacterium tuberculosis H37Rv; format: functional; conditions: Mycobacterium tuberculosis, H37Rv
# [2] = Inhibition of Mycobacterium tuberculosis IMPDH
# [3] = system: Mycobacterium tuberculosis; experiment: Antimycobacterial activity against Mycobacterium tuberculosis H37Rv in logarithmic phase; format: functional
# [4] = system: Mycobacterium tuberculosis; experiment: Antimycobacterial activity against Mycobacterium tuberculosis H37Rv in hypoxia-induced latent phase; format: functional
# [5] = system: Mycobacterium tuberculosis; experiment: Antimycobacterial activity against non-replicating Mycobacterium tuberculosis; format: functional
# [6] = system: Mycobacterium tuberculosis; experiment: Growth inhibition of Mycobacterium tuberculosis H37Rv at 100 ug/ml relative to control; format: functional; conditions: read-out: GI
# [7] = system: Mycobacterium tuberculosis; experiment: Antimycobacterial activity against Mycobacterium tuberculosis H37Rv ATCC 27294 by MABA; format: functional
# [8] = Selectivity index, ratio of IC50 for African green monkey Vero cells to MIC for Mycobacterium tuberculosis H37Rv ATCC 27294; format: toxicity; conditions: read-out: Selectivity Index
# [9] = system: Mycobacterium tuberculosis; experiment: Antimycobacterial activity against Mycobacterium tuberculosis; format: functional
# [10] = system: Mycobacterium tuberculosis; experiment: Potency index, ratio of pyrazinamide MIC to compound MIC for Mycobacterium tuberculosis H37Rv; format: functional
# [11] = system: Mycobacterium tuberculosis; experiment: Potency index, ratio of streptomycin MIC to compound MIC for Mycobacterium tuberculosis H37Rv; format: functional
# [12] = system: Mycobacterium tuberculosis; experiment: Potency index, ratio of isoniazid MIC to compound MIC for Mycobacterium tuberculosis H37Rv; format: functional
# [13] = system: Mycobacterium tuberculosis; experiment: Potency index, ratio of ciprofloxacin MIC to compound MIC for Mycobacterium tuberculosis H37Rv; format: functional
# HEK293 = experiment: Cytotoxicity against HEK293 cells after 24 hrs by MTT assay; format: cell-based; conditions: Homo sapiens, HEK293, 24 h
# [14] = system: Mycobacterium tuberculosis; experiment: Antimycobacterial activity against Mycobacterium tuberculosis H37Rv after 5 days by MABA; format: functional; conditions: 120 h
# [15] = system: Mycobacterium tuberculosis; experiment: Antimycobacterial activity against replicating Mycobacterium tuberculosis; format: functional
smiles,measurement,setting,value
CC1(C)CCc2c(c3ccccc3c3nc(-c4c[nH]c5ccccc45)[nH]c23)O1,MIC,[1],1.56 to 6.25 µg/mL
O=C(Cn1c(-c2cscn2)nc2ccccc21)Nc1ccc(F)cc1,IC50,[2],3000 to 10000 nM
N#Cc1ccc(NC(=O)Cn2c(-c3cscn3)nc3ccccc32)cc1,IC50,[2],3000 to 10000 nM
O=C(Cn1c(-c2cscn2)nc2ccccc21)Nc1ccc(Br)cc1,IC50,[2],3000 nM
O=C(Cn1c(-c2cscn2)nc2ccccc21)Nc1cccc(Cl)c1,IC50,[2],3000 to 10000 nM
COc1ccc(-c2cn(Cc3ccc(Cl)cc3Cl)cc2C(c2ccccc2)n2ccnc2)cc1 (stereo not drawn),MIC,[1],1 µg/mL
O=C(Cn1c(-c2cscn2)nc2ccccc21)Nc1ccc(Cl)cc1,IC50,[2],3000 to 10000 nM
Clc1ccc(Cn2cc(-c3ccccc3)c(C(c3ccccc3)n3ccnc3)c2)c(Cl)c1 (stereo not drawn),MIC,[1],1 to 16 µg/mL
COc1ccc(-c2nc3cc(-c4ccc5[nH]c(-c6ccc(OC)cc6)nc5c4)ccc3[nH]2)cc1,MIC,[3],0.5 to 16 µg/mL
same,MIC,[4],0.5 to 16 µg/mL
Oc1ccc(-c2nc3ccc(-c4ccc5nc(-c6ccc(O)cc6)[nH]c5c4)cc3[nH]2)cc1,MIC,[3],0.5 to 16 µg/mL
same,MIC,[4],0.5 to 16 µg/mL
CCc1nc2ccc(C)cc2n1CCCCOc1ccccc1,MIC,[5],0.056 to 2.6 µM
CCc1nc2ccc(C)cc2n1CCCCNc1ccccc1,MIC,[5],0.056 to 2.6 µM
COc1cccc(-c2nc3ccc(-c4ccc5nc(-c6cccc(OC)c6)[nH]c5c4)cc3[nH]2)c1,MIC,[3],0.5 to 16 µg/mL
same,MIC,[4],0.5 to 16 µg/mL
CCc1nc2ccc(C)cc2n1CCCCNc1ccc(OCc2ccccc2)cc1,MIC,[5],0.056 to 2.6 µM
COc1ccc2c(c1)cc(-c1nc(-c3ccccc3)c(-c3ccccc3)n1-c1ccc(C)cc1)c1nnnn12,inhibition of growth at 100 µg/mL,[6],17 to 99%
Cc1ccccc1NC(=O)Cn1c(-c2cscn2)nc2ccccc21,IC50,[2],3000 to 10000 nM
CCCSc1nnc(-c2ncc([N+](=O)[O-])[nH]2)s1,MIC,[7],3.13 to 6.25 µg/mL
same,selectivity ratio,[8],0.3 to 0.6
COc1ccc(-n2c(-c3cc4cc(Cl)ccc4n4nnnc34)nc(-c3ccccc3)c2-c2ccccc2)cc1,inhibition of growth at 100 µg/mL,[6],17 to 99%
Clc1ccc2c(c1)cc(-c1nc(-c3ccccc3)c(-c3ccccc3)n1-c1ccccc1)c1nnnn12,inhibition of growth at 100 µg/mL,[6],17 to 99%
CCCS(=O)(=O)c1nnc(-c2ncc([N+](=O)[O-])[nH]2)s1,MIC,[7],> 6.25 µg/mL
same,selectivity ratio,[8],0.3 to 0.6
O=C1/C(=C\c2ccccc2)SC(c2ccc(-n3ccnc3)cc2)N1Nc1ccccc1 (stereo not drawn),MIC,[9],14.3 to 49.7 µM
Cc1ccc(Oc2cc3[nH]c(Cn4ccnc4)nc3cc2F)cc1,MIC,[1],12.5 to 100 µg/mL
Cn1c(-c2cccc(Cl)c2Cl)nc2cc(-c3nc(-c4ccc(Cl)cc4)no3)ccc21,Ratio,[10],2
same,Ratio,[11],4
same,Ratio,[12],4
same,Ratio,[13],2
same,IC50,HEK293,> 500 µg/mL
same,MIC,[14],1.6 to 25 µg/mL
O=C1/C(=C\c2ccc(Cl)cc2)SC(c2ccc(-n3ccnc3)cc2)N1Nc1ccccc1 (stereo not drawn),MIC,[9],14.3 to 49.7 µM
Cn1c(-c2cccc(Cl)c2F)nc2cc(-c3nc(Cc4cccc(Cl)c4)no3)ccc21,Ratio,[10],2
same,Ratio,[11],4
same,Ratio,[12],4
same,Ratio,[13],2
same,IC50,HEK293,> 500 µg/mL
same,MIC,[14],1.6 to 25 µg/mL
c1ccc(-c2nc(-c3cc4ccccc4n4nnnc34)n(-c3ccccc3)c2-c2ccccc2)cc1,inhibition of growth at 100 µg/mL,[6],17 to 99%
Cc1ccc(-n2c(-c3cc4cc(Cl)ccc4n4nnnc34)nc(-c3ccccc3)c2-c2ccccc2)cc1,MIC99,[1],25 µg/mL
same,inhibition of growth at 100 µg/mL,[6],17 to 99%
Cc1ccc(-n2c(-c3cc4ccccc4n4nnnc34)nc(-c3ccccc3)c2-c2ccccc2)cc1,inhibition of growth at 100 µg/mL,[6],17 to 99%
CCc1nc2ccc(C)cc2n1CCCCNc1ccc(OC)cc1,MIC,[5],0.056 to 2.6 µM
CCc1nc2ccc(C)cc2n1CCCCSc1ccc(Cl)cc1,MIC,[5],0.056 to 2.6 µM
CCc1nc2ccc(C)cc2n1CCCCNc1cccc(C(F)(F)F)c1,MIC,[5],0.056 to 2.6 µM
CCCc1cc(=O)oc2c1c(OC)cc1[nH]c(C(=O)OCC)[n+]([O-])c12,MIC,[15],> 50 µg/mL
same,MIC,[5],> 50 µg/mL
CC[S+]([O-])c1nnc(-c2ncc([N+](=O)[O-])[nH]2)s1 (stereo not drawn),MIC,[7],1.56 µg/mL
same,selectivity ratio,[8],0.3 to 0.6
Cn1c(-c2cccc(Cl)c2Cl)nc2cc(-c3nc(-c4ccccc4Cl)no3)ccc21,Ratio,[10],2
same,Ratio,[11],4
same,Ratio,[12],4
same,Ratio,[13],2
same,IC50,HEK293,355 µg/mL
same,MIC,[14],1.6 to 25 µg/mL
Fc1ccc(-c2cn(Cc3ccc(Cl)cc3Cl)cc2C(c2ccccc2)n2ccnc2)cc1 (stereo not drawn),MIC,[1],1 µg/mL
CCSc1nnc(-c2ncc([N+](=O)[O-])[nH]2)s1,MIC,[7],3.13 to 6.25 µg/mL
same,selectivity ratio,[8],0.3 to 0.6
COc1ccc(-n2c(-c3cc4cc(OC)ccc4n4nnnc34)nc(-c3ccccc3)c2-c2ccccc2)cc1,inhibition of growth at 100 µg/mL,[6],17 to 99%
Fc1cc2nc(Cn3ccnc3)[nH]c2cc1Oc1ccccc1,MIC,[1],12.5 to 100 µg/mL
O=C(Cn1c(-c2cscn2)nc2ccccc21)Nc1ccc(I)cc1,IC50,[2],3000 to 10000 nM
